Measured values: US6107345A, “Benzocyclobutane compounds” (Adir et Compagnie, priority 1998, dated 2000)

Assays:
[1] = target: T1, serotonin reuptake sites (Rattus norvegicus, UniProt P31652); assay: Determination of the affinity for serotonin reuptake sites ([3H]-paroxetine competition); assay type: binding; conditions: frontal cortex membranes, 1.0 nM [3H]-paroxetine, 2 hours at 25° C., pH 7.4; read-out: pKi, serotonin reuptake sites (converted)
T1 construct: The membranes are prepared from frontal cortex of rate; from tissue; host or cells: frontal cortex membranes (rat, printed 'rate')
T1 sequence (P31652 whole entry): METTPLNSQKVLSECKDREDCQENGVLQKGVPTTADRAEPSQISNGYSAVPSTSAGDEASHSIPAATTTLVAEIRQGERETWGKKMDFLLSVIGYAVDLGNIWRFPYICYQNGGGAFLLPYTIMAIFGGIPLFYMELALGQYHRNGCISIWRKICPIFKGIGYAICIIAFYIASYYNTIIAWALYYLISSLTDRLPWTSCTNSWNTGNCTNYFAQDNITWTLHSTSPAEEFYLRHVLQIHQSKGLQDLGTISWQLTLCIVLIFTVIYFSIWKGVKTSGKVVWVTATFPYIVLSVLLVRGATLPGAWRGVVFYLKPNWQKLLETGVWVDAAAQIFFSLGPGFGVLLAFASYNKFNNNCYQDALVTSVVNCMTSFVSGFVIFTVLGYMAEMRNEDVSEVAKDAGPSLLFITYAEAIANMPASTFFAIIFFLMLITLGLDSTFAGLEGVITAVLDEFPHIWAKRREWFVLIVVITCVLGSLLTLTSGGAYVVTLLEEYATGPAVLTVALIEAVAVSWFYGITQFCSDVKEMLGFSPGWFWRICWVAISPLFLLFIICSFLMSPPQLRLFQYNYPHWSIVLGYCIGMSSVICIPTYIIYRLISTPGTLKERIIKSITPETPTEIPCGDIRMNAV
Experimental: Determination of the affinity for serotonin reuptake sites
The incubation buffer contains […] TRIS-HCl (pH 7.4), 120 mM NaCl and 5 mM KCl. The non-specific binding is determined using 10 μM citalopram. At the end of the incubation, the incubation medium is filtered and washed three times with 5 ml of cooled buffer. The radioactivity retained on the filters is determined by liquid scintillation counting. The binding isotherms are analysed by non-linear regression to determine the IC50 values. Those values are converted into a dissociation constant (Ki) using the Cheng-Prusoff equation: […]
(§1) The results are expressed in pKi (-log Ki).

[2] = system: mouse; assay: Suspension-by-the-tail test in the mouse; assay type: in vivo; conditions: for Immobility: 6 minutes of the test
Text: Suspension-by-the-tail test in the mouse
In this variation of the forced swimming test, the state of despair is induced in the mouse by suspending it head down by its tail. Placed in that uncomfortable situation, the animal struggles vigorously to start with and then adopts an immobile posture. Antidepressant products reduce the duration of immobility of the animal.
The animals are male NMRI (IFFA-CREDO) mice (22-26 g) which are housed, in groups of 20, in transparent plastic cages (59×38×20 cm) on sawdust, with food and drink as desired. On the day of the test, each mouse is placed in a separate cage as soon as it has been treated (sub-cutaneously) with the product or the solvent. Thirty minutes later, the animal is suspended by the tail from a hook using an adhesive tape attached to the tail. The hook is connected to a tension sensor which transmits all the animal's movements to a central processor ([…]-TST 1 system, ITEM-LABO, France). The total duration (sec.) of immobility of the animal during the 6 minutes of the test is recorded automatically.
The differences in the duration of immobility between the treated groups (product) and the control group (solvent) are analysed statistically by ANOVA followed by Dunnett's test, wherein p<0.05.

[3] = system: mouse; assay: Forced swimming test in the mouse; assay type: in vivo; conditions: for Duration of immobility: last 4 minutes (T2-T6)
Experimental: Forced swimming test in the mouse (Porsolt et al., 1977)
The forced swimming test in the mouse consists of inducing a state of despair in the animal by placing it for 6 minutes in a cylinder full of water, from which it cannot escape. The naive animal struggles vigorously for the first few minutes and then adopts an immobile posture for the last few minutes of the test. Antidepressant products reduce the duration of immobility of the animal during the test.
the animals are male CD (IFFA-CREDO) mice (22-26 g) which, on the day before the test, are placed individually in transparent plastic cages (25×15×14 cm) on sawdust, with food and drink as desired. On the day of the test, 30 minutes after treatment (product or solvent, administered sub-cutaneously), each mouse is plunged for 6 minutes (T0-T6) in a glass cylinder (23.5 cm in height, 11.5 cm in diameter) filled to a height of 6 centimeters with water maintained at 24±0.5° C. The total duration of immobility (sec.) of the animal during the last 4 minutes of the test (T2-T6) is observed: a mouse is considered to be immobile when it is floating in the water, making only small movements to keep its head out of the water.
The differences between the treated groups (product) and the control group (solvent) are evaluated statistically by variance analysis followed by Dunnett's test wherein p<0.05.

[4] = target: T2, noradrenaline reuptake sites (Rattus norvegicus, UniProt Q63380); assay: Determination of the affinity for noradrenaline reuptake sites ([3H]-nisoxetine competition); assay type: binding; conditions: frontal cortex membranes, 2 nM [3H]-nisoxetine, 4 hours at 4° C., pH 7.4; read-out: pKi, noradrenaline reuptake sites (converted)
T2 construct: The membranes are prepared from frontal cortex of rat; from tissue; host or cells: rat frontal cortex membranes
T2 sequence (Q63380 1-617): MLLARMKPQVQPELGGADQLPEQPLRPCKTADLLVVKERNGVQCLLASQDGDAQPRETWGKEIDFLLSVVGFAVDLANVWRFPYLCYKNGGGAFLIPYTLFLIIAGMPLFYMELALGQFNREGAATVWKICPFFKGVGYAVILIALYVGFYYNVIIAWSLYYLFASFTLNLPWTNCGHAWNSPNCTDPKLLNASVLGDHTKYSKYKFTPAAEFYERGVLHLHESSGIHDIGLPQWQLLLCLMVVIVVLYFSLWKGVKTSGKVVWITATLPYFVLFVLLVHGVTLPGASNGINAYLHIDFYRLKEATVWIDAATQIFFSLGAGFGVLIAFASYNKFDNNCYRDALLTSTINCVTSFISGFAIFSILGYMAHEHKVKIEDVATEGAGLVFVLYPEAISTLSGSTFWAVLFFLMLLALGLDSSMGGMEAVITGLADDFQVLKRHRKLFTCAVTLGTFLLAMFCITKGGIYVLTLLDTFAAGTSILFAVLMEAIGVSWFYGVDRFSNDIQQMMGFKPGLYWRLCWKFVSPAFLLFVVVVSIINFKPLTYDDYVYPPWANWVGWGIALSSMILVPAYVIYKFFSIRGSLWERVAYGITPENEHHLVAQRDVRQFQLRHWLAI
Experimental: The binding isotherms are analysed by non-linear regression to determine the IC50 values. Those values are converted into a dissociation constant (Ki) using the Cheng-Prusoff equation: […]
as §1

COc1ccc2c(c1)C(CN(C)C)(C1(O)CCCCC1)C2 (single isomer, unassigned; (-)) [Example 8, (-)-Isomer of 1-(N,N-dimethylaminomethyl)-1-(1-hydroxycyclohex-1-yl)-5-methoxybenzocyclobutane]
Ki [1]: 2 nM

COc1ccc2c(c1)C(CN(C)C)(C1(O)CCCCC1)C2 (stereo not drawn) [Example 3, 1-(N,N-Dimethylaminomethyl)-1-(1-hydroxycyclohex-1-yl)-5-methoxybenzocyclobutane]
Immobility, %/control ([2]; 0.63 mg/kg s.c.): 88% | Immobility ([2]; 0.63 mg/kg s.c.): 70.4 ± 13.5 s | Immobility, %/control ([2]; 2.5 mg/kg s.c.): 51% | Immobility ([2]; 2.5 mg/kg s.c.): 41.1 ± 9.6 s | Immobility, %/control ([2]; 10.0 mg/kg s.c.): 35% | Immobility ([2]; 10.0 mg/kg s.c., * p < 0.05): 27.8 ± 9.6 s

COc1ccc2c(c1)CC2(CN(C)C)C1(O)CCCCC1 (stereo not drawn) [Example 4, 1-(N,N-Dimethylaminomethyl)-1-(1-hydroxycyclohex-1-yl)-4-methoxybenzocyclobutane]
Duration of immobility, %/control ([3]; 0.63 mg/kg s.c.): 94% | Duration of immobility ([3]; 0.63 mg/kg s.c.): 157.3 ± 18.9 s | Duration of immobility, %/control ([3]; 2.5 mg/kg s.c.): 61% | Duration of immobility ([3]; 2.5 mg/kg s.c.): 101.6 ± 57.3 s | Duration of immobility, %/control ([3]; 10.0 mg/kg s.c.): 4% | Duration of immobility ([3]; 10.0 mg/kg s.c., * p < 0.05): 6.1 ± 6.1 s

COc1cccc2c1C(CN(C)C)(C1(O)CCCCC1)C2 (stereo not drawn) [Example 9, 1-(N,N-Dimethylaminomethyl)-1-(1-hydroxycyclohex-1-yl)-6-methoxybenzocyclobutane]
Ki [4]: 56.2 nM

CNCCC(Oc1ccc(C(F)(F)F)cc1)c1ccccc1 (stereo not drawn) [fluoxetine, reference compound]
Duration of immobility, %/control ([3]; 2.5 mg/kg s.c.): 94% | Duration of immobility, %/control ([3]; 10.0 mg/kg s.c.): 75% | Duration of immobility, %/control ([3]; 40.0 mg/kg s.c.): 73% | Immobility, %/control ([2]; 40.0 mg/kg s.c.): 91% | Immobility ([2]; 40.0 mg/kg s.c.): 69.9 ± 17.8 s | Immobility, %/control ([2]; 80.0 mg/kg s.c.): 110% | Immobility ([2]; 80.0 mg/kg s.c.): 84.3 ± 12.4 s
